Experiments:
[1] = Non-human primate CSF pharmacokinetics (Study B), cisterna magna versus lumbar sampling; assay type: in vivo, cynomolgus monkeys
Experimental: The objective of this study was to investigate the pharmacokinetics of Compound I-14 after administration of a single […] bolus or oral gavage dose to cynomolgus monkeys on Day 1 and to evaluate differences in pharmacokinetic values when comparing CSF collected at the cisterna magna (as in Example 10A) versus lumbar locations.
Single doses of Compound I-14 were administered intravenously as a bolus injection of a solution at 0.15 mg/kg and orally by gavage as a suspension at 0.5 mg/kg to a group of four female cynomolgus monkeys in a crossover design. Plasma samples were collected at 0.25 (15 min), 0.5 (30 min), 1, 2, 3, 6, 8, 12, 24, 32, and 48 h following the IV and PO doses. CSF samples were collected at 3 and 24 h for all animals from the cisterna magna in groups 1 and 2 and the lumbar from groups 3 and 4. Sample extracts were prepared by protein precipitation and Compound I-14 concentrations were measured using LC-MS/MS. Pharmacokinetic parameters were calculated.

[2] = system: MPTP-induced cognitive deficits; test: Chronic low dose MPTP-lesioned macaque model of cognitive deficits in Parkinson's disease; assay type: in vivo, cynomolgus macaques; details: 3.0 mg/kg oral daily monotherapy
Excerpt: This study was a non-GLP study in the chronic low dose MPTP-lesioned macaque model of Parkinson's disease. This model has been described in the literature (https://www.ncbi.nlm.nih.gov/pmc/articles/PMC3282499/). The study was designed to assess effects of Compound I-14, administered as monotherapy, on performance of the following cognitive tasks: variable delayed response (VDR), continuous performance (CPT), visual discrimination reversal learning (SDR) and object retrieval (OR). The study was conducted in animals that had received prior treatment with low doses of MPTP and were known to have difficulties in the performance of the above-mentioned tasks. These studies utilised four male cynomolgus macaques with MPTP-induced cognitive deficits. The study had 4 parts. The first part of the study was to collect baseline data from the four animals on the four tasks to be studied. The second part of the study was to administer vehicle (sterile, filtered distilled water) over a 16 day period and collect vehicle data on the four tasks once per week for two weeks. In the third part of the study, Compound I-14 was administered orally daily for five days and then data were collected on the four tasks once per week for two weeks, with continued daily administration of Compound I-14 (3.0 mg/kg) 2 hrs. prior to each days testing. In the final part of the study, there was a 9 day washout period and then data were collected on the four tasks once per week for two weeks. One dose of Compound I-14 was assessed as monotherapy (3.0 mg/kg) following five days of pre-dosing and daily dosing for two weeks. The effects of the treatment on cognitive performance was assessed 2 hrs. after daily drug administration and during drug washout. MPTP-HCl was administered by i.v. injection at doses ranging from 0.05 mg/kg to 0.30 mg/kg, 2 to 3 times per week for several months. MPTP administration continued until cognitive deficits appeared with minimal/mild parkinsonian motor impairment. Animals were considered “cognitively impaired” if they show at least a 15% decrease in cognitive task performance from pre-MPTP baseline levels. Because response to MPTP is somewhat idiosyncratic, MPTP was administered to effect (i.e., development of cognitive deficits and then development of motor deficits), rather than given for a particular duration of exposure or a particular cumulative dose of MPTP. […] The measure recorded for each session is: 1) total number of trials needed to learn the initial discrimination (i.e. reach the specified criterion of 14/16 correct, and; 2) total number of trials needed to learn (i.e., reach the same criterion as mentioned above) the reversal in which the previously negative (unrewarded) stimulus is now the positive (rewarded) stimulus (i.e., reach criterion). […]

With `Cc1cc(F)c(Cc2nc(-c3ncc(F)c(O)n3)cn3ccnc23)cc1F` [Compound I-14, 5-fluoro-2-(8-(2,5-difluoro-4-methylbenzyl)imidazo[1,2-a]pyrazin-6-yl)pyrimidin-4-ol] the “geomean ratio of CSF concentration to unbound concentration in plasma” value ([1]; 3 hours, IV dosing, cisterna magna sampling) was “C (2<Kp,uu≤3=C)”, the “geomean ratio of CSF concentration to unbound concentration in plasma” value ([1]; 3 hours, IV dosing, lumbar sampling) was “C (2<Kp,uu≤3=C)” and the “geomean ratio of CSF concentration to unbound concentration in plasma” value ([1]; 3 hours, oral dosing, cisterna magna sampling) was “C (2<Kp,uu≤3=C)”. The “geomean ratio of CSF concentration to unbound concentration in plasma” value ([1]; 3 hours, oral dosing, lumbar sampling) was “C (2<Kp,uu≤3=C)”, the “geomean ratio of CSF concentration to unbound concentration in plasma” value ([1]; 24 hours, IV dosing, cisterna magna sampling) was “B (1<Kp,uu≤2=B)” and the “geomean ratio of CSF concentration to unbound concentration in plasma” value ([1]; 24 hours, IV dosing, lumbar sampling) was “B (1<Kp,uu≤2=B)”. The “geomean ratio of CSF concentration to unbound concentration in plasma” value ([1]; 24 hours, oral dosing, cisterna magna sampling) was “C (2<Kp,uu≤3=C)”, the “geomean ratio of CSF concentration to unbound concentration in plasma” value ([1]; 24 hours, oral dosing, lumbar sampling) was “C (2<Kp,uu≤3=C)” and the Simple discrimination performance [2] was “not significantly changed”. The “number of trials needed to reach criterion to learn the discrimination reversal” value [2] was “significantly reduced”, the “animals failing to learn the discrimination reversal” value ([2]; four animals) was “none of the animals failed to learn the reversal” and the “SDR (discrimination reversal) performance” value ([2]; tested 2 hrs after dosing) was “significantly improved performance”.

From patent US20240207265A1, “TREATMENT OF CNS DISEASES WITH sGC STIMULATORS” (Tisento Therapeutics Inc., priority 2021, published 2024)
